Reference: the NIST ThermoML archive (doi:10.1021/je200811n)
± gives the expanded uncertainty stated by the source.

Settings: Hot wire method

C=C(F)C(F)(F)F [2,3,3,3-tetrafluoro-1-propene]
Settings	thermal conductivity [W/m/K]
332.05 K, 300 kPa, Gas	0.01662 ± 0.00056
332.05 K, 1511 kPa, Gas	0.01807 ± 0.00032
332.06 K, 821 kPa, Gas	0.01681 ± 0.00056
332.12 K, 1388 kPa, Gas	0.01774 ± 0.00032
332.13 K, 627 kPa, Gas	0.01673 ± 0.00056
332.19 K, 1235 kPa, Gas	0.01737 ± 0.00031
332.21 K, 465 kPa, Gas	0.01667 ± 0.00056
332.27 K, 1074 kPa, Gas	0.01714 ± 0.00031
332.3 K, 974 kPa, Gas	0.01699 ± 0.00057
332.31 K, 299 kPa, Gas	0.01673 ± 0.00056
332.33 K, 1511 kPa, Gas	0.01806 ± 0.00032
332.36 K, 820 kPa, Gas	0.01686 ± 0.00056
332.38 K, 202 kPa, Gas	0.0168 ± 0.00056
332.41 K, 1386 kPa, Gas	0.01772 ± 0.00032
332.46 K, 626 kPa, Gas	0.01677 ± 0.00056
332.48 K, 1233 kPa, Gas	0.01739 ± 0.00031
332.55 K, 102 kPa, Gas	0.01703 ± 0.00057
332.56 K, 463 kPa, Gas	0.01674 ± 0.00056
332.58 K, 1073 kPa, Gas	0.01716 ± 0.00031
332.62 K, 973 kPa, Gas	0.01704 ± 0.00057
332.62 K, 1511 kPa, Gas	0.01806 ± 0.00032
332.67 K, 299 kPa, Gas	0.01675 ± 0.00056
332.69 K, 819 kPa, Gas	0.0169 ± 0.00057
332.71 K, 1385 kPa, Gas	0.0177 ± 0.00031
332.75 K, 202 kPa, Gas	0.01687 ± 0.00056
332.81 K, 626 kPa, Gas	0.01677 ± 0.00056
332.81 K, 1233 kPa, Gas	0.01741 ± 0.00031
332.91 K, 1072 kPa, Gas	0.01718 ± 0.00031
332.91 K, 1511 kPa, Gas	0.01803 ± 0.00032
332.92 K, 461 kPa, Gas	0.01677 ± 0.00056
332.95 K, 101 kPa, Gas	0.01705 ± 0.00057
332.96 K, 972 kPa, Gas	0.01706 ± 0.00057
333.04 K, 299 kPa, Gas	0.01681 ± 0.00056
333.04 K, 1384 kPa, Gas	0.0177 ± 0.00031
333.05 K, 818 kPa, Gas	0.01692 ± 0.00057
333.14 K, 1232 kPa, Gas	0.01741 ± 0.00031
333.15 K, 202 kPa, Gas	0.01686 ± 0.00056
333.18 K, 625 kPa, Gas	0.01682 ± 0.00056
333.26 K, 1071 kPa, Gas	0.0172 ± 0.00031
333.3 K, 460 kPa, Gas	0.01681 ± 0.00056
333.31 K, 972 kPa, Gas	0.01708 ± 0.00057
333.38 K, 101 kPa, Gas	0.01705 ± 0.00057
333.41 K, 817 kPa, Gas	0.01696 ± 0.00057
333.45 K, 300 kPa, Gas	0.01686 ± 0.00056
333.56 K, 624 kPa, Gas	0.01687 ± 0.00056
333.57 K, 202 kPa, Gas	0.01692 ± 0.00057
333.69 K, 460 kPa, Gas	0.01685 ± 0.00056
333.83 K, 102 kPa, Gas	0.0171 ± 0.00057
333.87 K, 300 kPa, Gas	0.01688 ± 0.00056
334.02 K, 202 kPa, Gas	0.01695 ± 0.00057
334.31 K, 102 kPa, Gas	0.01716 ± 0.00057
341.28 K, 102 kPa, Gas	0.01759 ± 0.00059
341.35 K, 201 kPa, Gas	0.01779 ± 0.00059
341.39 K, 303 kPa, Gas	0.01795 ± 0.0006
341.45 K, 17165 kPa, Liquid	0.0645 ± 0.00072
341.49 K, 102 kPa, Gas	0.01745 ± 0.00058
341.52 K, 12122 kPa, Liquid	0.06134 ± 0.00069
341.52 K, 21726 kPa, Liquid	0.06742 ± 0.00075
341.55 K, 17165 kPa, Liquid	0.06461 ± 0.00073
341.56 K, 200 kPa, Gas	0.01761 ± 0.00059
341.6 K, 303 kPa, Gas	0.01775 ± 0.00059
341.6 K, 8202 kPa, Liquid	0.05839 ± 0.00066
341.61 K, 21724 kPa, Liquid	0.06756 ± 0.00075
341.62 K, 12120 kPa, Liquid	0.06114 ± 0.00069
341.69 K, 5189 kPa, Liquid	0.05547 ± 0.00063
341.7 K, 8198 kPa, Liquid	0.05823 ± 0.00066
341.73 K, 103 kPa, Gas	0.01734 ± 0.00058
341.77 K, 2101 kPa, Liquid	0.05131 ± 0.00059
341.79 K, 200 kPa, Gas	0.0175 ± 0.00058
341.8 K, 5187 kPa, Liquid	0.05524 ± 0.00063
341.8 K, 17162 kPa, Liquid	0.0647 ± 0.00073
341.82 K, 302 kPa, Gas	0.01766 ± 0.00059
341.85 K, 21720 kPa, Liquid	0.06741 ± 0.00075
341.88 K, 12117 kPa, Liquid	0.06141 ± 0.00069
341.89 K, 2100 kPa, Liquid	0.05083 ± 0.00059
341.92 K, 17160 kPa, Liquid	0.06488 ± 0.00073
341.96 K, 103 kPa, Gas	0.01726 ± 0.00058
341.96 K, 21718 kPa, Liquid	0.06759 ± 0.00075
341.98 K, 8198 kPa, Liquid	0.05827 ± 0.00066
342.01 K, 12114 kPa, Liquid	0.06141 ± 0.00069
342.02 K, 199 kPa, Gas	0.01743 ± 0.00058
342.03 K, 1842 kPa, Gas	0.01945 ± 0.00034
342.03 K, 1904 kPa, Gas	0.01996 ± 0.00035
342.04 K, 1737 kPa, Gas	0.0191 ± 0.00034
342.05 K, 302 kPa, Gas	0.01758 ± 0.00059
342.07 K, 1574 kPa, Gas	0.01854 ± 0.00033
342.08 K, 5185 kPa, Liquid	0.0553 ± 0.00063
342.11 K, 8197 kPa, Liquid	0.05815 ± 0.00066
342.16 K, 1405 kPa, Gas	0.01818 ± 0.00032
342.17 K, 951 kPa, Gas	0.01775 ± 0.00059
342.18 K, 17158 kPa, Liquid	0.06504 ± 0.00073
342.19 K, 814 kPa, Gas	0.0177 ± 0.00059
342.19 K, 2098 kPa, Liquid	0.05099 ± 0.00058
342.21 K, 103 kPa, Gas	0.01718 ± 0.00057
342.22 K, 5183 kPa, Liquid	0.05512 ± 0.00063
342.22 K, 21716 kPa, Liquid	0.0677 ± 0.00076
342.26 K, 605 kPa, Gas	0.01764 ± 0.00059
342.27 K, 199 kPa, Gas	0.01735 ± 0.00058
342.27 K, 1842 kPa, Gas	0.01963 ± 0.00034

Settings	thermal conductivity [W/m/K]
333.15 K, Liquid	0.05329 ± 0.00041
